According to patent publication US20190060257A1, “ANALGESIC COMPOUNDS” (ZENO ROYALTIES & MILESTONES, LLC, priority 2016, published 2019):

System: male ICR mice
Assay: Formalin Paw Test
Format: in vivo, mouse
Conditions: 30 mg/kg, intraperitoneal administration; for Early Phase: early/acute phase (0-10 minutes) after 2% formalin into hind paw; for Late Phase: late/tonic phase (10-35 minutes) after 2% formalin into hind paw
Experimental: One test compound or the vehicle was administered to each mouse in each test group (8 mice per group). Non-fasted male ICR mice weighing 23±3 g were used. Test compounds were administered at a concentration of 3 mg/kg, 10 mg/kg, 15 mg/kg, 30 mg/kg, 60 mg/kg, 100 mg/kg, 200 mg/kg or 300 mg/kg; morphine was administered at a concentration of 5 mg/kg; and acetaminophen was administered at a concentration of 200 mg/kg. The control group received the vehicle (5% DMSO/40% PEG400/20% HPbCD/Saline). After 30 or 60 minutes, a 2% formalin solution (0.02 mL) was injected into one hind paw (sub-plantar) of each mouse. Responses were measured every 5 minutes after the formalin injection for 35 minutes.
The results in Table A are for intraperitoneal administration. In Table A, ‘A’ designates <70 licks/sec, ‘B’ designates ≥70 licks/sec and <165 licks/sec, and ‘C’ designates ≥165 licks/sec.

## NC1CCC(F)(F)C1 (centres unmarked) [Compound 8]
  Early Phase: B (‘B’ designates ≥70 licks/sec and <165 licks/sec)
  Late Phase: B (‘B’ designates ≥70 licks/sec and <165 licks/sec)

## NC1CC2(C1)CC(N)C2 (centres unmarked) [Compound 13]
  Early Phase: B (‘B’ designates ≥70 licks/sec and <165 licks/sec)
  Late Phase: B (‘B’ designates ≥70 licks/sec and <165 licks/sec)

## CC12CC3CC(C)(C1)CC(N)(C3)C2 [Compound 19]
  Early Phase: A (‘A’ designates <70 licks/sec)
  Late Phase: A (‘A’ designates <70 licks/sec)

## NC12CCC(C(F)(F)F)(CC1)CC2 [Compound 18]
  Early Phase: B (‘B’ designates ≥70 licks/sec and <165 licks/sec)
  Late Phase: B (‘B’ designates ≥70 licks/sec and <165 licks/sec)

## NC1CCCCCC1 [Compound 11]
  Early Phase: A (‘A’ designates <70 licks/sec)
  Late Phase: C (‘C’ designates ≥165 licks/sec)

## N[C@H]1C[C@@H](O)C1 [cis-1]
  Early Phase: B (‘B’ designates ≥70 licks/sec and <165 licks/sec)
  Late Phase: C (‘C’ designates ≥165 licks/sec)

## N[C@H]1C[C@H](O)C1 [trans-1]
  Early Phase: B (‘B’ designates ≥70 licks/sec and <165 licks/sec)
  Late Phase: C (‘C’ designates ≥165 licks/sec)

## NC1CC(F)(F)C1 [Compound 2]
  Early Phase: B (‘B’ designates ≥70 licks/sec and <165 licks/sec)
  Late Phase: B (‘B’ designates ≥70 licks/sec and <165 licks/sec)

## NC1CCCC(C(F)(F)F)C1 (centres unmarked) [Compound 10]
  Early Phase: A (‘A’ designates <70 licks/sec)
  Late Phase: A (‘A’ designates <70 licks/sec)

## NC12CC3CC(C1)CC(C(F)(F)F)(C3)C2 [Compound 20]
  Early Phase: A (‘A’ designates <70 licks/sec)
  Late Phase: A (‘A’ designates <70 licks/sec)

## NC1CCC(F)(F)CC1 [Compound 9]
  Early Phase: A (‘A’ designates <70 licks/sec)
  Late Phase: A (‘A’ designates <70 licks/sec)

## NCC1CC(F)(F)C1 [Compound 6]
  Early Phase: B (‘B’ designates ≥70 licks/sec and <165 licks/sec)
  Late Phase: B (‘B’ designates ≥70 licks/sec and <165 licks/sec)

## NC1CC2(C1)CC(O)C2 (centres unmarked) [Compound 14]
  Early Phase: B (‘B’ designates ≥70 licks/sec and <165 licks/sec)
  Late Phase: B (‘B’ designates ≥70 licks/sec and <165 licks/sec)
